According to patent US20250340563A1, “FUSED PYRIDAZINE DERIVATIVES AS NLRP3 INHIBITORS” (Takeda Pharmaceutical Company Limited, priority 2022, published 2025):

Tests used:
NLRP3 inflammasome = NLRP3 inflammasome (Homo sapiens, UniProt Q96P20); experiment: IL-1β assay in IFN-γ-differentiated, LPS-primed, ATP-activated THP-1 cells (ELISA); assay type: cell-based; settings: 50 ng/mL LPS priming, 2.5 mM ATP activation, 2 hours
Outline: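 THP-1 cells differentiated with 25 ng/mL IFN-γ for 24 h, then primed with 50 ng/mL LPS for 24 h in serum-free medium. After 30 min compound preincubation (1:3.16 dilution series), inflammasome activated with 2.5 mM ATP for 2 h at 37 °C. Supernatant IL-1β measured by ELISA; IC50 from logistic fit of % inhibition.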

NF-κB pathway = experiment: TNF-α assay in IFN-γ-differentiated, LPS-stimulated THP-1 cells (ELISA); assay type: cell-based; settings: Homo sapiens, 50 ng/mL LPS, 3 hours
Description: Monocytic THP-1 cells (ATCC: TIB-202) are maintained in accordance with the provider's instructions in RPMI media (Life Technologies, Cat #A10491-01); RPMI is supplemented with 10% heat inactivated fetal bovine serum (Hyclone Cat #SH30396.03). The cells are differentiated into macrophages by the addition of 25 ng/mL IFN-γ for 24 hours at 37° C./5% CO2. Media is exchanged with fresh media with no FBS. The cells are plated at 40,000 cells per well in 384-well flat-bottom cell culture plates (Costar 3764) containing compounds (added in 1:1000) in a 1:3.16 serial dilution series in DMSO and are incubated for 30 minutes at 37° C./5% CO2. The NF-κB pathway is activated with the addition of 50 ng/mL LPS and the cells are incubated for 3 hours at 37° C./5% CO2. At the end of the incubation period, supernatant (40 μL) is removed, and […] are monitored using an ELISA (Human TNF-α ELISA, R&D systems, Cat #DY210) according to the manufacturer's instructions.
The IC50 values are calculated from a plot of percentage of inhibition versus the inhibitor concentration by a logistics curve fit according to: Y=[Bottom+(Top−Bottom)]/(1+10^[(Log IC50−X)·Hill Slope], where Y is the % inhibition at the inhibitor concentration, X, “Bottom” is the lowest inhibition value, i.e. 0%, “Top” is the maximum inhibition value, i.e. 100%, and the “Hill Slope” describes the slope of the sigmoidal curve between the “Bottom” and “Top” values. The curve fitting was conducted with internally developed software.

NLRP3 inflammasome, sequence (Q96P20 whole entry): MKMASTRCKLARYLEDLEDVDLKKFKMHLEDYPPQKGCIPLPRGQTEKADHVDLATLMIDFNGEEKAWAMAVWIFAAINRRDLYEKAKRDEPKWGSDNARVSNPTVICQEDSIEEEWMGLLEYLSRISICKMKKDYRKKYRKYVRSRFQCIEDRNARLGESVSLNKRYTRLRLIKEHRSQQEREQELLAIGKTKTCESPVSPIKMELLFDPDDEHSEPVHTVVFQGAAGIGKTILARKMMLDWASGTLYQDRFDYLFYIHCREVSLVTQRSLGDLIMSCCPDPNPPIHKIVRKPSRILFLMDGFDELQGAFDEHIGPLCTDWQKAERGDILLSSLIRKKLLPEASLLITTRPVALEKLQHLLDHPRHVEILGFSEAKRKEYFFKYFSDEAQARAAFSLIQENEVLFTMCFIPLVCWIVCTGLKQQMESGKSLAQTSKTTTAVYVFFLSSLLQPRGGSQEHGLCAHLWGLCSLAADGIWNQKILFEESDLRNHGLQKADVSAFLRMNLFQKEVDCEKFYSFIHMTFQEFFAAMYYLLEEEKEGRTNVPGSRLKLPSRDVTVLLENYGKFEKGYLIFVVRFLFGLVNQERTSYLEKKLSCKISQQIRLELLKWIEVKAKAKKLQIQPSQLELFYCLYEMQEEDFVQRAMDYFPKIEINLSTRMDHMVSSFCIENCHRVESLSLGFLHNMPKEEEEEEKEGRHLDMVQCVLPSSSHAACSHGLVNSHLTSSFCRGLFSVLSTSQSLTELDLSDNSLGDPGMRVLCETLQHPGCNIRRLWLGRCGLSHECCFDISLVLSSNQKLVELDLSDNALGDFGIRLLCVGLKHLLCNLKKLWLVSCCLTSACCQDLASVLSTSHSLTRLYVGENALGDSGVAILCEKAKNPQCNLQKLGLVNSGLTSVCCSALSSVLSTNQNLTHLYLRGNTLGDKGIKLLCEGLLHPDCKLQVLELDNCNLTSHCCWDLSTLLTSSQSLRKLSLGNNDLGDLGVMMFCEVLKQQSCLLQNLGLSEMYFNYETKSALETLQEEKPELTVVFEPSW

Row | SMILES | IC50 (NLRP3 inflammasome) | IC50 (NF-κB pathway)
1 | CN1C[C@H](F)C[C@@H](Nc2nnc(-c3ccc(OC(F)(F)F)cc3F)c3c2COCC3)C1 [Example 205, N-((3R,5R)-5-fluoro-1-methylpiperidin-3-yl)-1-(2-fluoro-4-(trifluoromethoxy)phenyl)-7,8-dihydro-5H-pyrano[3,4-d]pyridazin-4-amine] | 64 nM | > 30 µM
2 | CN1C[C@H](F)C[C@@H](Nc2nnc(-c3ccc(Cl)cc3F)c3c2COCC3)C1 [Example 217, 1-(4-chloro-2-fluorophenyl)-N-((3R,5R)-5-fluoro-1-methylpiperidin-3-yl)-7,8-dihydro-5H-pyrano[3,4-d]pyridazin-4-amine] | 876 nM | > 30 µM
3 | CN1CCCC(Nc2nnc(-c3ccc(C4CC4)cc3)c3ccccc23)C1 (centres unmarked) [Example 16, 4-(4-cyclopropylphenyl)-N-(1-methylpiperidin-3-yl)phthalazin-1-amine] | 112 nM | > 30 µM
4 | COc1ccc(-c2nnc(N[C@@H]3C[C@@H](F)CN(C)C3)c3c2COCC3)c(C(F)(F)F)c1 [Example 210, N-((3R,5R)-5-fluoro-1-methylpiperidin-3-yl)-4-(4-methoxy-2-(trifluoromethyl)phenyl)-7,8-dihydro-5H-pyrano[3,4-d]pyridazin-1-amine] | 757 nM | > 30 µM
5 | Cc1cc2c(-c3ccc(Cl)cc3)nnc(NC3CCCN(C)C3)c2cn1 (centres unmarked) [Example 80, 1-(4-chlorophenyl)-7-methyl-N-(1-methylpiperidin-3-yl)pyrido[3,4-d]pyridazin-4-amine] | 36 nM | > 30 µM
6 | Cc1ccc(-c2nnc(N[C@@H]3C[C@@H](F)CN(C)C3)c3c(C)nccc23)c(O)c1 [Example 186, 2-(4-(((3R,5R)-5-fluoro-1-methylpiperidin-3-yl)amino)-5-methylpyrido[3,4-d]pyridazin-1-yl)-5-methylphenol] | 5 nM | > 30 µM
7 | COc1ccc(-c2nnc(NC3CCCN(C)C3)c3cnccc23)cc1 (centres unmarked) [Example 72, 1-(4-methoxyphenyl)-N-(1-methylpiperidin-3-yl)pyrido[3,4-d]pyridazin-4-amine] | 52 nM | > 30 µM
8 | CN1C[C@H](F)C[C@@H](Nc2nnc(-c3ccc(Cl)cc3)c3cnccc23)C1 [Example 175, 4-(4-chlorophenyl)-N-((3R,5R)-5-fluoro-1-methylpiperidin-3-yl)pyrido[3,4-d]pyridazin-1-amine] | 589 nM | –
9 | COc1ccc(-c2nnc(N[C@@H]3CCCN(C4CC4)C3)c3c2CCOC3)cc1 [Example 228, (R)—N-(1-cyclopropylpiperidin-3-yl)-1-(4-methoxyphenyl)-7,8-dihydro-5H-pyrano[3,4-d]pyridazin-4-amine] | 23 nM | –
10 | CC12CCC(Nc3nnc(-c4ccc(Cl)cc4)c4ccccc34)(CO1)C2 (centres unmarked) [Example 136, 4-(4-chlorophenyl)-N-(1-methyl-2-oxabicyclo[2.2.1]heptan-4-yl)phthalazin-1-amine] | 3720 nM | –
11 | O[C@]1(C(F)(F)F)CCC[C@H](Nc2nnc(-c3ccc(Cl)cc3)c3ccccc23)C1 [Example 115, (1R,3S)-3-((4-(4-chlorophenyl)phthalazin-1-yl)amino)-1-(trifluoromethyl)cyclohexan-1-ol] | 2190 nM | –
12 | CN1CCC[C@@H](Nc2nnc(-c3ccc(C(F)(F)F)cc3F)c3ccncc23)C1 [Example 33, (R)-1-(2-fluoro-4-(trifluoromethyl)phenyl)-N-(1-methylpiperidin-3-yl)pyrido[3,4-d]pyridazin-4-amine] | 33 nM | –
13 | CN1CCCC(Nc2nnc(-c3ccc(C(F)(F)F)nc3)c3ccccc23)C1 (centres unmarked) [Example 22, N-(1-methylpiperidin-3-yl)-4-(6-(trifluoromethyl)pyridin-3-yl)phthalazin-1-amine] | 897 nM | –
14 | COc1ccc(-c2nnc(N[C@H]3CC[C@](O)(C(F)(F)F)CC3)c3ccccc23)cc1 [Example 128, trans-4-((4-(4-methoxyphenyl)phthalazin-1-yl)amino)-1-(trifluoromethyl)cyclohexan-1-ol] | 3020 nM | –
15 | CN1CCCC(Nc2nnc(-c3ccc(Cl)cc3Cl)c3cnccc23)C1 (centres unmarked) [Example 52, 4-(2,4-dichlorophenyl)-N-(1-methylpiperidin-3-yl)pyrido[3,4-d]pyridazin-1-amine] | 2400 nM | –

The remaining compounds from weak to strong by IC50 (NLRP3 inflammasome), led by results:

Row | IC50 (NLRP3 inflammasome) | IC50 (NF-κB pathway) | SMILES
16 | 4570 nM | – | COC1(C)CC(Nc2nnc(-c3ccc(Cl)cc3)c3ccccc23)C1(C)C (centres unmarked) [Example 135, 4-(4-chlorophenyl)-N-(3-methoxy-2,2,3-trimethylcyclobutyl)phthalazin-1-amine]
17 | 3470 nM | – | COc1cc(F)ccc1-c1nnc(N[C@@H]2C[C@@H](F)CN(C)C2)c2ccncc12 [Example 182, N-((3R,5R)-5-fluoro-1-methylpiperidin-3-yl)-4-(4-fluoro-2-methoxyphenyl)pyrido[3,4-d]pyridazin-1-amine]
18 | 3390 nM | – | Clc1ccc(-c2nnc(NC3CCCN(c4ccccn4)C3)c3ccccc23)cc1 (centres unmarked) [Example 154, 4-(4-chlorophenyl)-N-(1-(pyridin-2-yl)piperidin-3-yl)phthalazin-1-amine]
19 | 3020 nM | > 30 µM | COc1ccc(-c2nnc(Nc3cccc(O)c3)c3cnccc23)cc1 [Example 40, 3-((1-(4-methoxyphenyl)pyrido[3,4-d]pyridazin-4-yl)amino)phenol]
20 | 2300 nM | > 30 µM | O[C@H]1C[C@@H](Nc2nnc(-c3ccc(Cl)cc3)c3ccccc23)C1 [Example 122, cis-3-((4-(4-chlorophenyl)phthalazin-1-yl)amino)cyclobutan-1-ol]
21 | 2040 nM | – | CN1CCc2c(NC3CCCN(C)C3)nnc(-c3ccc(Cl)cc3)c2C1 (centres unmarked) [Example 99, 4-(4-chlorophenyl)-6-methyl-N-(1-methylpiperidin-3-yl)-5,6,7,8-tetrahydropyrido[3,4-d]pyridazin-1-amine]
22 | 575 nM | – | COc1ccc(-c2nnc(N[C@@H]3C[C@@H](F)CN(C4CC4)C3)c3ccccc23)cc1 [Example 55, N-((3R,5R)-1-cyclopropyl-5-fluoropiperidin-3-yl)-4-(4-methoxyphenyl)phthalazin-1-amine]
23 | 552 nM | > 30 µM | CN1CCC[C@@H](Nc2nnc(-c3ccc(Cl)cc3)c3cnccc23)C1 [Example 67, (R)-4-(4-chlorophenyl)-N-(1-methylpiperidin-3-yl)pyrido[3,4-d]pyridazin-1-amine]
24 | 468 nM | – | OC1CC2(C1)CC(Nc1nnc(-c3ccc(Cl)cc3)c3ccccc13)C2 (centres unmarked) [Example 133, 6-((4-(4-chlorophenyl)phthalazin-1-yl)amino)spiro[3.3]heptan-2-ol]
25 | 425 nM | > 30 µM | COc1ccc(-c2nnc(N[C@@H]3C[C@@H](F)CN(C)C3)c3c2CCOC3)c(C(F)F)c1 [Example 206, 1-(2-(difluoromethyl)-4-methoxyphenyl)-N-((3R,5R)-5-fluoro-1-methylpiperidin-3-yl)-7,8-dihydro-5H-pyrano[3,4-d]pyridazin-4-amine]
26 | 311 nM | > 30 µM | CN1C[C@@H](F)C[C@@H](Nc2nnc(-c3ccc(Cl)cc3)c3ccccc23)C1 [Example 185, 4-(4-chlorophenyl)-N-((3R,5S)-5-fluoro-1-methylpiperidin-3-yl)phthalazin-1-amine]
27 | 72 nM | > 30 µM | COc1ccc(-c2nnc(N[C@@H]3CCCN(C)C3)c3c(C)cccc23)cc1 [Example 56, (R)-4-(4-methoxyphenyl)-8-methyl-N-(1-methylpiperidin-3-yl)phthalazin-1-amine]
28 | 43 nM | > 30 µM | Clc1ccc(-c2nnc(NC3CCCN(C4CC4)C3)c3ccccc23)cc1 (centres unmarked) [Example 144, 4-(4-chlorophenyl)-N-(1-cyclopropylpiperidin-3-yl)phthalazin-1-amine]
29 | 41 nM | > 30 µM | CN1CCCC(Nc2nnc(-c3ccc(Cl)cc3F)c3ccccc23)C1 (centres unmarked) [Example 43, 4-(4-chloro-2-fluorophenyl)-N-(1-methylpiperidin-3-yl)phthalazin-1-amine]
30 | 20 nM | > 30 µM | CN1C[C@H](F)C[C@@H](Nc2nnc(-c3ccccc3O)c3ccncc23)C1 (relative stereo) [Example 172, 2-(4-((trans-5-fluoro-1-methylpiperidin-3-yl)amino)pyrido[3,4-d]pyridazin-1-yl)phenol]
31 | 18 nM | > 30 µM | CCN1CCCC(Nc2nnc(-c3ccc(Cl)cc3)c3ccccc23)C1 (centres unmarked) [Example 162, 4-(4-chlorophenyl)-N-(1-ethylpiperidin-3-yl)phthalazin-1-amine]
32 | 8 nM | > 30 µM | CN1CCC[C@@H](Nc2nnc(-c3ccccc3O)c3ccncc23)C1 [Example 28, (R)-2-(4-((1-methylpiperidin-3-yl)amino)pyrido[3,4-d]pyridazin-1-yl)phenol]
